The structures appear in SMILES notation.

This series in a line: Dissolution in polyethylene glycol 400 (appearance of solution, microscope). The series is classed as physicochemical. Particulars: 20 mg phospholipid DHGPC in 1 ml polyethylene glycol 400, 21° C. The source says:
Polyethylene glycol 400 served as solvent. […] This was confirmed under a microscope.
Microscope images confirmed this.

Take `CCCCCCC(=O)OC[C@H](COP(=O)([O-])OCC[N+](C)(C)C)OC(=O)CCCCCC` [DHGPC, diheptanoyl glycerophosphocholine]: the appearance of solution entry was “clear solution”.
